What all share (test): In vitro antibacterial activity, two-fold agar-plate dilution method
Common to all, as to assay type: cell-based

The subject of assay [1] is Escherichia coli NIHJ JC-2. To be noted: NIHJJC2, HI-agar, 37° C., 20 hours, read-out: MIC (minimal inhibitory concentration). The method, then: (§1) In vitro antibacterial activity was determined by the two-fold agar-plate dilution method as described below.
(§2) One loopful of the 100-fold dilution of an overnight culture of each test strain in Trypticasesoy broth was streaked on heart infusion agar (HI-agar) containing graded concentrations of the test compound and incubated at 37° C. for 20 hours. The minimal inhibitory concentration (MIC) was expressed in μg/ml.

The test system of assay [2] is Klebsiella pneumoniae 20. Particulars: HI-agar, 37° C., 20 hours, read-out: MIC (minimal inhibitory concentration). The method, then:
as §1, §2

Assay [3] concerns Proteus mirabilis 18. Particulars: HI-agar, 37° C., 20 hours, read-out: MIC (minimal inhibitory concentration). The procedure:
as §1, §2

In assay [4] the test system is Proteus vulgaris IAM-1025. Particulars: IAM1025, HI-agar, 37° C., 20 hours, read-out: MIC (minimal inhibitory concentration). The method, then:
as §1, §2

The subject of assay [5] is Pseudomonus aeruginosa NCTC-10490. Particulars: HI-agar, 37° C., 20 hours, read-out: MIC (minimal inhibitory concentration). The method, then:
as §1, §2

The subject of assay [6] is Staphylococcus aureus 209 P JC-1. Particulars: 209PJC1, HI-agar, 37° C., 20 hours, read-out: MIC (minimal inhibitory concentration). The method, then: as §1, §2

The source of these data is patent US4284631A, “7-Substituted cephem compounds and pharmaceutical antibacterial compositions containing them” (Fujisawa Pharmaceutical Co., Ltd., priority 1978, dated 1981).

Values after ≈ are worked out from the molar mass of the structure shown. Where a name gives a salt, the structure may show the parent alone.

Turning to `N#CCO/N=C(\C(=O)NC1C(=O)N2C(C(=O)O)=CCSC12)c1csc(N)n1` (stereo not drawn) [Compound 1, 7-[2-(2-aminothiazol-4-yl)-2-cyanomethoxyiminoacetamido]-3-cephem-4-carboxylic acid (syn isomer)], the MIC in assay [1] was 0.05 µg/mL (≈ 0.122 µM); in assay [2], 0.025 µg/mL (≈ 0.0612 µM); in assay [3] it was 0.025 µg/mL (≈ 0.0612 µM); in assay [4], 0.025 µg/mL (≈ 0.0612 µM); in assay [5] it was 1.56 µg/mL (≈ 3.82 µM); in assay [6], 6.25 µg/mL (≈ 15.3 µM).
In the case of `Nc1nc(/C(=N/OCc2ccon2)C(=O)NC2C(=O)N3C(C(=O)O)=CCSC23)cs1` (stereo not drawn) [Compound 6, 7-[2-(2-aminothiazol-4-yl)-2-(3-isoxazolylmethoxyimino)acetamido]-3-cephem-4-carboxylic acid (syn isomer)], the MIC in assay [1] came to 0.1 µg/mL (≈ 0.222 µM); in assay [2], 0.025 µg/mL (≈ 0.0555 µM); in assay [3] it was 0.1 µg/mL (≈ 0.222 µM); in assay [4], 0.025 µg/mL (≈ 0.0555 µM); in assay [5], 1.56 µg/mL (≈ 3.46 µM); in assay [6], 3.13 µg/mL (≈ 6.95 µM).
With `Nc1nc(/C(=N/OCCO)C(=O)NC2C(=O)N3C(C(=O)O)=CCSC23)cs1` (stereo not drawn) [Compound 2, 7-[2-(2-aminothiazol-4-yl)-2-(2-hydroxyethoxyimino)acetamido]-3-cephem-4-carboxylic acid (syn isomer)], the MIC in assay [1] worked out at 0.05 µg/mL (≈ 0.121 µM); in assay [2], 0.025 µg/mL (≈ 0.0605 µM); in assay [3] it was 0.025 µg/mL (≈ 0.0605 µM); in assay [4] it was 0.025 µg/mL (≈ 0.0605 µM); in assay [5], 3.13 µg/mL (≈ 7.57 µM); in assay [6], 12.5 µg/mL (≈ 30.2 µM).
Take `CSCO/N=C(\C(=O)NC1C(=O)N2C(C(=O)O)=CCSC12)c1csc(N)n1` (stereo not drawn) [Compound 4, 7-[2-(2-aminothiazol-4-yl)-2-(methylthiomethoxyimino)acetamido]-3-cephem-4-carboxylic acid (syn isomer)]: the MIC in assay [1] stood at 0.05 µg/mL (≈ 0.116 µM); in assay [2] it was 0.025 µg/mL (≈ 0.0582 µM); in assay [3] it was 0.05 µg/mL (≈ 0.116 µM); in assay [4], 0.025 µg/mL (≈ 0.0582 µM); in assay [5], 1.56 µg/mL (≈ 3.63 µM); in assay [6], 1.56 µg/mL (≈ 3.63 µM).
Turning to `NCc1ccc(CO/N=C(\C(=O)NC2C(=O)N3C(C(=O)O)=CCSC23)c2csc(N)n2)cc1` (stereo not drawn) [Compound 5, 7-[2-(2-aminothiazol-4-yl)-2-(4-aminomethylbenzyloxyimino)acetamido]-3-cephem-4-carboxylic acid dihydrochloride (syn isomer)], the MIC was 0.1 µg/mL in assay [1]; 0.05 µg/mL in assay [2]; 0.1 µg/mL in assay [3]; 0.05 µg/mL in assay [4]; 3.13 µg/mL in assay [5]; 0.78 µg/mL in assay [6].
Regarding `CCOCCO/N=C(\C(=O)NC1C(=O)N2C(C(=O)O)=CCSC12)c1csc(N)n1` (stereo not drawn) [Compound 3, 7-[2-(2-aminothiazol-4-yl)-2-(2-ethoxyethoxyimino)acetamido]-3-cephem-4-carboxylic acid (syn isomer)], the MIC amounted to 0.2 µg/mL (≈ 0.453 µM) in assay [1]; 0.025 µg/mL (≈ 0.0566 µM) in assay [2]; 0.2 µg/mL (≈ 0.453 µM) in assay [3]; 0.025 µg/mL (≈ 0.0566 µM) in assay [4]; 1.56 µg/mL (≈ 3.53 µM) in assay [5]; 3.13 µg/mL (≈ 7.09 µM) in assay [6].
